Laboratory results: article PMC11507974, “Phytochemical Analysis, Antioxidant Activity and Bioassay-Guided Isolation of Acetylcholinesterase and Butyrylcholinesterase Inhibitors from Horsfieldia polyspherula Bark (Myristicaceae)” (Tropical Life Sciences Research, 2024)
Where two headings read alike, the source gives them in different places.

Key:
DPPH radical scavenging = conditions: 15 min incubation, 517 nm
Experimental: The free radical scavenging activity of the samples was determined using 1,1-diphenyl-2 picrylhydrazyl (DPPH) assay as described with minor modification ([Chua et al. 2013]). The DPPH solution was prepared by dissolving 3.0 mg of DPPH in 150 mL of methanol to afford 20 μg/mL. A 750 μL of the sample’s solution at different concentrations, ranging from 1.25 mg/mL to 40 mg/mL was added to 1,500 μL of DPPH solution. The absorbance was recorded at 517 nm using Shimadzu UV-2600 UV-Vis spectrophotometer after 15 min of incubation at room temperature. Ascorbic acid was used as the positive control, while methanol was used as negative control for scanning the background. The ability to scavenge the DPPH was calculated using Equation 2:
(2) DPPH radical scavenging activity (%)=Abs control-Abs sample/Abs control×100
where Abs control is the absorbance of DPPH while Abs sample is the absorbance of the sample. […] All experiments were performed in triplicates.

BuChE from equine serum = molecular target: T1, BuChE from equine serum (Equus caballus, UniProt P81908); experiment: biochemical; type: biochemical; conditions: for SI (selectivity index for BuChE): IC50 (AChE)/ IC50 (BuChE)
T1 construct: BuChE from equine serum lyophilized powder (C7512-1.2KU); purchased Sigma Aldrich, Germany C7512-1.2KU; host or cells: equine serum
Experimental: (§1) To assess the inhibitory activity of H. polyspherula extract, fractions and isolated compounds towards AChE and BuChE, Ellman’s spectrophotometric method was followed ([Ellman et al. 1961]) using purified AChE from Electrophorus electricus (electric eel) Type V-S (C2888-1K), and BuChE from equine serum lyophilized powder (C7512-1.2KU) all from Sigma Aldrich, Germany. The reaction took place in a final volume of 200 μL of a (140 μL to 160 μL) 100 mM phosphate-buffered solution at pH 7.5 for AChE and 8.0 for BuChE, containing (20 μL) 0.2 U of AChE or 0.1 U of BuChE. Inhibition curves were made by pre-incubating this mixture with six concentrations of each sample (20 μL) for 15 min. A sample with no compound (blank) was present to determine the 100% of enzyme activity. After the pre-incubation period, ten microlitre (10 μL) of 10 mM of 5,5′-dithiobis-2-nitrobenzoic acid (DTNB, D8130 Sigma Aldrich, Germany) was added prior to 14 mM (10 μL) acetylthiocholine iodide (A5751) or 14 Mm butyrylthiocholine iodide (B3253-5G) source from Sigma Aldrich, Germany) were added, DTNB produces yellow anion 5-thio-2-nitrobenzoic acid along with the enzymatic degradation of ATChI or BuTChI. Changes in absorbance were detected at 412 nm in a 96 well spectrophotometric microplate reader (Bostch Biotek) after 30 min. […] Data are analysed using excel, graph pad prism 9.0.0 and expressed as means ± SD of at least three different experiments in triplicate.
(§2) (3) % inhibition=[…]/Abs (blank)×100

[1] = molecular target: T2, AChE from Electrophorus electricus (electric eel) Type V-S (Electrophorus electricus, UniProt O42275); experiment: biochemical; type: biochemical; conditions: for SI (selectivity index for AChE): IC50 (BuChE)/ IC50 (AChE)
T2 construct: purified AChE from Electrophorus electricus (electric eel) Type V-S (C2888-1K); purchased Sigma Aldrich, Germany C2888-1K
Experimental: as §1, §2

[2] = IC50 BuChE, pure compounds (μM for the pure compound)
[3] = IC50 AChE, pure compounds (μM for the pure compound)
[4] = pure compounds (μM for the pure compound)

T1 sequence (P81908 whole entry): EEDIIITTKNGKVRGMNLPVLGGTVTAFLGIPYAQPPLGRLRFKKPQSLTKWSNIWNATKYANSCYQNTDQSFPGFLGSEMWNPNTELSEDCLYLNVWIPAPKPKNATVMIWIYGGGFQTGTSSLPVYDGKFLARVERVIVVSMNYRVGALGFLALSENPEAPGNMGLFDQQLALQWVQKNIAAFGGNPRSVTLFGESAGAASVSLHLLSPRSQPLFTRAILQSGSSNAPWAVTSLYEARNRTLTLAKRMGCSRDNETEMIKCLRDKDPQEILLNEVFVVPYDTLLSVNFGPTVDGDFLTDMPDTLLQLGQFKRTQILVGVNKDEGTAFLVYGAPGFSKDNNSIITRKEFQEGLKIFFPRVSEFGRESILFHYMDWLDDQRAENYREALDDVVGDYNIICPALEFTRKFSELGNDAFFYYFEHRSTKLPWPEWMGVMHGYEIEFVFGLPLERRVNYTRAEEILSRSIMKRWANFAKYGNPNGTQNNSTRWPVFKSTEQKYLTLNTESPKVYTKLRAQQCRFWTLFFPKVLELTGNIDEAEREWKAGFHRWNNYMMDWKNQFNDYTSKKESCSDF
T2 sequence (O42275 24-633): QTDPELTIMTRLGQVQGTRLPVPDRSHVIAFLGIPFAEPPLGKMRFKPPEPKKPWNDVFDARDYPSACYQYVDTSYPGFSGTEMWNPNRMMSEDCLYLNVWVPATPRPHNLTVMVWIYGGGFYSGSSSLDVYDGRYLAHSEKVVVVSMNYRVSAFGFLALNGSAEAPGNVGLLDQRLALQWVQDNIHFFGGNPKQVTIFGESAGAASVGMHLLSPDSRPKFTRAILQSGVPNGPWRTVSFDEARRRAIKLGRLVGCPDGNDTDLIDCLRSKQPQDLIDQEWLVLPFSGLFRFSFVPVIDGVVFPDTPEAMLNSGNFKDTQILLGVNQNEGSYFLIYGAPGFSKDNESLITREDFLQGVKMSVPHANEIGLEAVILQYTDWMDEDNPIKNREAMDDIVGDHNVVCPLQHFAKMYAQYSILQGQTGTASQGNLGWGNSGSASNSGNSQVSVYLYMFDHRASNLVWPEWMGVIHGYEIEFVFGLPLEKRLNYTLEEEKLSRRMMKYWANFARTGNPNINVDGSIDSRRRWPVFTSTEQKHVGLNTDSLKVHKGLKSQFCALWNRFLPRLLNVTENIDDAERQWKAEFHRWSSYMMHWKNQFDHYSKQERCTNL

O=C1O[C@H]([C@@H](O)CO)C(O)=C1O [Ascorbic acid, reference compound]
IC50 of DPPH free radical scavenging activity (DPPH radical scavenging): 4.21 ± 0.13 µg/mL

O=C(O)CCCCCCCCCCCCCCCc1ccccc1 [Compound 1, 16-phenylhexadecanoic acid]
SI (selectivity index for BuChE) (BuChE from equine serum): 1.14
IC50 (BuChE from equine serum; pure compounds (μM for the pure compound), read-out: IC50 BuChE): 41 ± 1.99 µM
SI (selectivity index for AChE) [1]: 0.88
IC50 ([1]; pure compounds (μM for the pure compound), read-out: IC50 AChE): 46.8 ± 2.44 µM

CCCCCCCCCCCc1ccccc1 [Compound 2, Undecylbenzene]
SI (selectivity index for BuChE) (BuChE from equine serum): 1.05
IC50 (BuChE from equine serum; [2]): 234 ± 4.78 µM
SI (selectivity index for AChE) [1]: 0.95
IC50 [1, 3]: 246.1 ± 1.4 µM

O=C(O)c1ccc(O)c(O)c1 [Compound 3, 3,4-dihydroxybenzoic acid]
SI (selectivity index for BuChE) (BuChE from equine serum): 1.41
IC50 (BuChE from equine serum; [2]): 232 ± 8.37 µM
SI (selectivity index for AChE) [1]: 0.71
IC50 [1, 3]: 327 ± 6.83 µM
IC50 of DPPH free radical scavenging activity (DPPH radical scavenging): 6.56 ± 0.02 µg/mL

CCCCCCCCCCCCCC(=O)OCC(COC(=O)CCCCCCCCCCCCC)OC(=O)CCCCCCCCCCCCC [Compound 9, Trimyristin]
IC50 BuChE (BuChE from equine serum; [4]): no inhibitory activities
IC50 AChE [1, 4]: no inhibitory activities

CNC(=O)Oc1ccc2c(c1)[C@]1(C)CCN(C)[C@@H]1N2C [Eserine, reference compound]
% inhibition BuChE (BuChE from equine serum; control, tested at 0.2 μM): 44.45 ± 0.23%
